# Test results taken from EP4562004B1, “NOVEL 7-SUBSTITUTED INDOLE SULFONAMIDE DERIVATIVES” (F. Hoffmann-La Roche AG, priority 2022, dated 2024).
# Molecular target: human GPR17 short isoform (Homo sapiens, UniProt Q13304)
# Experiment: GPR17 cAMP assay (antagonist mode, TR-FRET cAMP detection)
# Assay type: cell-based
# Conditions: CHO-K1 cells stably expressing human GPR17 short isoform; with EC80 concentration of agonist MDL29,951, IBMX 0.5mM, forskolin 15µM; normalized to reference antagonist; read-out: hGPR17 cAMP IC50
# Description: CHO-K1 cells stably expressing vector containing untagged human GPR17 short isoform (Roche) were cultured at 37°C / 5% CO2 in DMEM (Dulbecco's Modified Eagle Medium):F-12 (1:1) supplemented with 10% foetal bovine serum and 400 µg/ml Geneticin.
# Changes in intracellular cyclic adenosine monophosphate (cAMP) levels were quantified using the Nano-TRF Detection Assay kit (Roche Diagnostics, Cat. No. 05214386001). This assay allows for direct cAMP quantification in a homogeneous solution. cAMP is detected based on time-resolved fluorescence energy transfer (TR-FRET) and competitive binding of ruthenylated cAMP and endogenous cAMP to an anti-cAMP monoclonal antibody labeled with AlexaFluor-700. The Ruthenium complex serves as the FRET donor and transfers energy to AlexaFluor-700. The FRET signal is inversely proportional to the cAMP concentration.
# CHO-GPR17S cells were detached with Accutase and resuspended in assay buffer consisting of Hank's Balanced Salt Solution (HBSS), 10mM HEPES (4-(2-hydroxyethyl) piperazine-1-ethanesulfonic acid solution) and 0.1% bovine serum albumin (pH 7.4). The cells were seeded in black 384-well plates (Corning) at a density of 10'000 cells / 20µl assay buffer until the addition of compounds.
# Test antagonist compounds were serially diluted in dimethyl sulfoxide (DMSO) and spotted in 384-well plates. The compounds were then diluted in HBSS buffer supplemented with an EC80 concentration of MDL29,951 (3-(2-Carboxy-4,6-dichloroindol-3-yl)propionic acid) (GPR17 agonist) plus 3-Isobutyl-1-methylxanthine (IBMX) (0.5mM final concentration) and added to the cells at room temperature. Forskolin (15µM final concentration) was added 5 minutes after the test compounds and the cells were incubated at room temperature for 30 minutes. The assay was stopped by adding cAMP detection mix (containing detergents for cell lysis) for 90 minutes at room temperature.
# Cellular cAMP was measured using a Paradigm reader (Molecular Devices). The raw data was used to calculate the FRET signal based on the assay's P-factor as per cAMP kit instructions. The data was normalized to the maximal activity of a reference antagonist and dose response curves were fitted to the percent activity of the test compounds using a sigmoidal dose response model (Genedata Screener).
# Results in the hGPR17 cAMP assay are provided for compounds of formula I in Table 1 Table 1: […]
# Chain of human GPR17 short isoform (Q13304 29-367): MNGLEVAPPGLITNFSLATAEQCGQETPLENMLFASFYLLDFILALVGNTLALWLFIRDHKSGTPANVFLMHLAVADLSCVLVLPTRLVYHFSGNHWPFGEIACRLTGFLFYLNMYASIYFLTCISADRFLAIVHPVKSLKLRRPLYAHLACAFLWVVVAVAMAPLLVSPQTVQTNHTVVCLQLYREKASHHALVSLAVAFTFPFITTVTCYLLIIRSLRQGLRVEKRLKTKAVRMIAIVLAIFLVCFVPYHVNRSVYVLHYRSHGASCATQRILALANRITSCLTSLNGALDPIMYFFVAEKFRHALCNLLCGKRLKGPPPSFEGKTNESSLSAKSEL
row,SMILES,IC50 [nM]
1,"COc1nc(NS(=O)(=O)c2c[nH]c3c(-n4nccn4)c(Cl)ccc23)ncc1OCCF [Example 12, 6-chloro-N-[5-(2-fluoroethoxy)-4-methoxy-pyrimidin-2-yl]-7-(triazol-2-yl)-1H-indole-3-sulfonamide]",52
2,"COc1nc(NS(=O)(=O)c2c[nH]c3c(-n4ccnc4)cccc23)nc(OC)c1CC(F)F [Example 3, N-[5-(2,2-difluoroethyl)-4,6-dimethoxy-pyrimidin-2-yl]-7-imidazol-1-yl-1H-indole-3-sulfonamide]",300
3,"COc1nc(NS(=O)(=O)c2c[nH]c3c(-n4cccn4)c(Cl)ccc23)nc(OC)c1CCC#N [Example 70, 6-chloro-N-[5-(2-cyanoethyl)-4,6-dimethoxy-pyrimidin-2-yl]-7-pyrazol-1-yl-1H-indole-3-sulfonamide]",37
4,"COc1nc(NS(=O)(=O)c2c[nH]c3c(-n4nccn4)cccc23)nc(OC)c1CC(F)F [Example 13, N-[5-(2,2-difluoroethyl)-4,6-dimethoxy-pyrimidin-2-yl]-7-(triazol-2-yl)-1H-indole-3-sulfonamide]",203
5,"COc1nc(NS(=O)(=O)c2c[nH]c3c(-n4nccn4)c(Br)ccc23)nc(OC)c1C1CC1C#N (stereo not shown) [Example 31, 6-bromo-N-[5-(2-cyanocyclopropyl)-4,6-dimethoxy-pyrimidin-2-yl]-7-(triazol-2-yl)-1H-indole-3-sulfonamide]",30
6,"COc1nc(NS(=O)(=O)c2c[nH]c3c(-n4nccn4)c(Cl)ccc23)ncc1CC(F)F [Example 78, 6-chloro-N-[5-(2,2-difluoroethyl)-4-methoxy-pyrimidin-2-yl]-7-(triazol-2-yl)-1H-indole-3-sulfonamide]",55
7,"COc1nc(NS(=O)(=O)c2c[nH]c3c(-n4ccc(C)n4)cccc23)nc(OC)c1CC(F)F [Example 1, N-[5-(2,2-difluoroethyl)-4,6-dimethoxy-pyrimidin-2-yl]-7-(3-methylpyrazol-1-yl)-1H-indole-3-sulfonamide]",68
8,"COc1nc(NS(=O)(=O)c2c[nH]c3c(-n4nccn4)c(C)ccc23)nc(OC)c1CC(F)F [Example 22, N-[5-(2,2-difluoroethyl)-4,6-dimethoxy-pyrimidin-2-yl]-6-methyl-7-(triazol-2-yl)-1H-indole-3-sulfonamide]",21
9,"COc1nc(NS(=O)(=O)c2c[nH]c3c(-n4cccn4)c(Cl)ccc23)ncc1CC(F)F [Example 71, 6-chloro-N-[5-(2,2-difluoroethyl)-4-methoxy-pyrimidin-2-yl]-7-pyrazol-1-yl-1H-indole-3-sulfonamide]",63
10,"COc1nc(NS(=O)(=O)c2c[nH]c3c(-n4nccn4)c(F)ccc23)nc(OC)c1OCCF [Example 33, 6-fluoro-N-[5-(2-fluoroethoxy)-4,6-dimethoxy-pyrimidin-2-yl]-7-(triazol-2-yl)-1H-indole-3-sulfonamide]",141
11,"COc1nc(NS(=O)(=O)c2c[nH]c3c(-n4nccn4)cccc23)nc(OC)c1OCCF [Example 19, N-[5-(2-fluoroethoxy)-4,6-dimethoxy-pyrimidin-2-yl]-7-(triazol-2-yl)-1H-indole-3-sulfonamide]",316
12,"COc1nc(NS(=O)(=O)c2c[nH]c3c(-n4nc(C)cc4C)cccc23)nc(OC)c1CC(F)F [Example 2, N-[5-(2,2-difluoroethyl)-4,6-dimethoxy-pyrimidin-2-yl]-7-(3,5-dimethylpyrazol-1-yl)-1H-indole-3-sulfonamide]",32
13,"[2H]C([2H])(F)C([2H])([2H])Oc1c(OC)nc(NS(=O)(=O)c2c[nH]c3c(-n4cccn4)c(Br)ccc23)nc1OC [Example 84, 6-bromo-N-[4,6-dimethoxy-5-(1,1,2,2-tetradeuterio-2-fluoro-ethoxy)pyrimidin-2-yl]-7-pyrazol-1-yl-1H-indole-3-sulfonamide]",26
14,"COc1nc(NS(=O)(=O)c2c[nH]c3c(-n4nccn4)c(Cl)ccc23)nc(OC)c1C1CC1C#N (stereo not shown) [Example 18, 6-chloro-N-[5-(2-cyanocyclopropyl)-4,6-dimethoxy-pyrimidin-2-yl]-7-(triazol-2-yl)-1H-indole-3-sulfonamide]",25

# More lines, now with the values ahead:
row,IC50 [nM],SMILES
1,32,"COc1nc(NS(=O)(=O)c2c[nH]c3c(-n4nccn4)c(Cl)ccc23)nc(OC)c1OCC(F)F [Example 9, 6-chloro-N-[5-(2,2-difluoroethoxy)-4,6-dimethoxy-pyrimidin-2-yl]-7-(triazol-2-yl)-1H-indole-3-sulfonamide]"
2,59,"COc1nc(NS(=O)(=O)c2c[nH]c3c(-n4cccn4)c(C)ccc23)nc(OC)c1OCC(F)F [Example 74, N-[5-(2,2-difluoroethoxy)-4,6-dimethoxy-pyrimidin-2-yl]-6-methyl-7-pyrazol-1-yl-1H-indole-3-sulfonamide]"
3,25,"COc1nc(NS(=O)(=O)c2c[nH]c3c(-n4ccc(F)n4)c(Cl)ccc23)nc(OC)c1OCC(F)F [Example 53, 6-chloro-N-[5-(2,2-difluoroethoxy)-4,6-dimethoxy-pyrimidin-2-yl]-7-(3-fluoropyrazol-1-yl)-1H-indole-3-sulfonamide]"
4,22,"COc1nc(NS(=O)(=O)c2c[nH]c3c(-n4cccn4)c(Cl)ccc23)nc(OC)c1CC(F)F [Example 4, 6-chloro-N-[5-(2,2-difluoroethyl)-4,6-dimethoxy-pyrimidin-2-yl]-7-pyrazol-1-yl-1H-indole-3-sulfonamide]"
5,24,"COc1nc(NS(=O)(=O)c2c[nH]c3c(-n4nccn4)c(Cl)ccc23)nc(OC)c1CC(F)CF (stereo not shown) [Example 16, 6-chloro-N-[5-(2,3-difluoropropyl)-4,6-dimethoxy-pyrimidin-2-yl]-7-(triazol-2-yl)-1H-indole-3-sulfonamide]"
6,42,"COc1nc(NS(=O)(=O)c2c[nH]c3c(-n4cccn4)c(Br)ccc23)nc(OC)c1OCC(F)F [Example 75, 6-bromo-N-[5-(2,2-difluoroethoxy)-4,6-dimethoxy-pyrimidin-2-yl]-7-pyrazol-1-yl-1H-indole-3-sulfonamide]"
7,25,"COc1nc(NS(=O)(=O)c2c[nH]c3c(-n4ccc(F)n4)c(Cl)ccc23)nc(OC)c1CC(F)F [Example 55, 6-chloro-N-[5-(2,2-difluoroethyl)-4,6-dimethoxy-pyrimidin-2-yl]-7-(3-fluoropyrazol-1-yl)-1H-indole-3-sulfonamide]"
8,45,"COc1nc(NS(=O)(=O)c2c[nH]c3c(-n4nccc4C)c(Cl)ccc23)nc(OC)c1OCC(F)F [Example 46, 6-chloro-N-[5-(2,2-difluoroethoxy)-4,6-dimethoxy-pyrimidin-2-yl]-7-(5-methylpyrazol-1-yl)-1H-indole-3-sulfonamide]"
9,36,"[2H]C([2H])(F)C([2H])([2H])Oc1c(OC)nc(NS(=O)(=O)c2c[nH]c3c(-n4cccn4)c(Cl)ccc23)nc1OC [Example 68, 6-chloro-N-[4,6-dimethoxy-5-(1,1,2,2-tetradeuterio-2-fluoro-ethoxy)pyrimidin-2-yl]-7-pyrazol-1-yl-1H-indole-3-sulfonamide]"
10,36,"COc1nc(NS(=O)(=O)c2c[nH]c3c(-n4cccn4)c(Br)ccc23)nc(OC)c1OCCF [Example 83, 6-bromo-N-[5-(2-fluoroethoxy)-4,6-dimethoxy-pyrimidin-2-yl]-7-pyrazol-1-yl-1H-indole-3-sulfonamide]"
11,26,"COc1nc(NS(=O)(=O)c2c[nH]c3c(-n4cc(F)cn4)c(Cl)ccc23)nc(OC)c1OCCF [Example 47, 6-chloro-N-[5-(2-fluoroethoxy)-4,6-dimethoxy-pyrimidin-2-yl]-7-(4-fluoropyrazol-1-yl)-1H-indole-3-sulfonamide]"
12,44,"[2H]C([2H])(c1c(OC)nc(NS(=O)(=O)c2c[nH]c3c(-n4cccn4)c(Cl)ccc23)nc1OC)C(F)F [Example 86, 6-chloro-N-[5-(1,1-dideuterio-2,2-difluoroethyl)-4,6-dimethoxy-pyrimidin-2-yl]-7-pyrazol-1-yl-1H-indole-3-sulfonamide]"
13,27,"COc1nc(NS(=O)(=O)c2c[nH]c3c(-n4cccn4)c(Br)ccc23)nc(OC)c1OC(F)F [Example 77, 6-bromo-N-[5-(difluoromethoxy)-4,6-dimethoxy-pyrimidin-2-yl]-7-pyrazol-1-yl-1H-indole-3-sulfonamide]"
14,31,"COc1nc(NS(=O)(=O)c2c[nH]c3c(-n4cccn4)c(Cl)ccc23)nc(OC)c1OCCF [Example 67, 6-chloro-N-[5-(2-fluoroethoxy)-4,6-dimethoxy-pyrimidin-2-yl]-7-pyrazol-1-yl-1H-indole-3-sulfonamide]"
